Experimental data published in patent US20220119447A1, “PEPTIDE AND FOR TREATING INFLAMMATORY DISEASE AND PAIN USING THE SAME” (PELL BIO-MED TECHNOLOGY CO., LTD., priority 2019, published 2022).
Non-standard residues stand in square brackets, D forms with d. Residues, ends and D or L forms follow the SMILES beside them. pGlu = O=C1CC[C@@H](C(=O)O)N1

Legend:
[1] = system: CFA-induced arthritis ICR mice; test: Paw withdraw threshold (von Frey Filament) over time after single oral administration in CFA-induced arthritis mice; conditions: for time after administration of best antinociceptive effect: oral, peptide 3 mg/kg, morphine 10 mg/kg, PWT at 0, 30, 60, 90, 120 min, effect started to decrease at 120 min
TNF-α = test: Serum TNF-α by ELISA in CFA-induced arthritis mice after weekly oral administration; assay type: in vivo; conditions: 3 mg/kg oral once a week, 4th to 12th week; serum on 12th week; FIG. 1
Description: (§1) On the other hand, the mice administered with water were served as the control group, which also comprised 6 mice. The mice in the experimental group and the control group were sacrificed on the 12th week after administration. The serum collection is conducted by cardiac puncture. The Mouse TNF-α Quantikine ELISA Kit (R&D System, MTA00B), Mouse IL-6 Quantikine ELISA Kit (R&D System, M600B) and enzyme-linked immunosorbent assay (ELISA) were used to determine and collect the serum concentration of TNF-α and IL-6 of mice in the experimental group and the control group.

IL-6 = test: Serum IL-6 by ELISA in CFA-induced arthritis mice after weekly oral administration; assay type: in vivo; conditions: 3 mg/kg oral once a week, 4th to 12th week; serum on 12th week; vs control group; FIG. 2
Description: as §1

[2] = system: CFA-induced arthritis ICR mice; test: Paw withdraw threshold (von Frey Filament) on weekly oral administration, 4th to 12th week, in CFA-induced arthritis mice; assay type: in vivo; conditions: 1 mg/kg oral once a week, 90 min after administration, increased from 0.4 g at 3rd week, FIG. 6
Excerpt: Two dosage groups both contained 6 mice. […] The control group also contained 6 mice.

[3] = system: CFA-induced arthritis ICR mice; test: Paw withdraw threshold (von Frey Filament) after low oral doses (μg/kg) in CFA-induced arthritis mice; assay type: in vivo; conditions: 90 min after administration; for PWT value of ipsilateral hind paw: rose from 0.065 g, FIG. 7; for PWT value of contralateral paw: rose from 0.32 g, FIG. 8
Excerpt: Every dosage group contained 6 mice.

C57BL/6JNarl male mice [4] = test: Acid-induced abdominal constriction (writhing) assay; assay type: in vivo; conditions: oral doses of 1 μg/kg and 10 mg/kg, among 0.1 μg/kg to 10 mg/kg tested; 10 min before 1% acetic acid; FIG. 9
Description: (§2) For conducting nociceptive pain and acid-induced chronic widespread pain experiments, C57BL/6JNarl male mice (20 to 25 g) were housed in an environment with temperature control (24±0.5° C.) and 12-hour light-dark cycle (lights on during 08:00-20:00) and allowed free access to standard laboratory food and tap water. Animals were allowed to acclimatize for 20 to 30 min prior to experimental manipulations. Animal care and handling procedures were adopted in accordance with the International Association for the Study of Pain guidelines for those animals used in pain research, and the procedures were approved by the Committee for Ethics in Animal Research.
Acid-induced abdominal constriction assay was performed in accordance with H. O. Collier, L. C. Dinneen, C. A. Johnson, C. Schneider, The abdominal constriction response and its suppression by analgesic drugs in the mouse. Br J Pharmacol Chemother 32, 295-310 (1968). In general, the mice from Preparation Example 3 were placed in a small observation chamber and habituated for 20 min. […] The numbers of abdominal constrictions in 30 min after acid injection were counted and the mean constriction numbers of mice of each group were calculated. […]

C57BL/6JNarl male mice [5] = test: Radiant heat tail-flick test; assay type: in vivo; conditions: oral doses of 0.1 μg/kg, 0.3 μg/kg, 0.1 mg/kg, 1 mg/kg, 3 mg/kg and 10 mg/kg, among 0.01 μg/kg to 10 mg/kg tested; mean latency 10-90 min; FIG. 9
Description: as §2
The radiant heat tail-flick test was modified in accordance with F. E. D'Amour, D. L. Smith, A method for determining loss of pain sensation. The Journal of Pharmacology and Experimental Therapeutics 72, 74-79 (1941). The 5 to 12 mice from Preparation Example 3 were placed and acclimatized in the restrainers for 30 min prior to the tail-flick test. […] The latency was recorded every 10 min during the indicated time period (10-90 min) after oral administration with different dosages of the peptide of SEQ ID NO: 1 (0.01 μg/kg, 0.03 μg/kg, 0.1 μg/kg, 0.3 μg/kg, 1 μg/kg, 0.01 mg/kg, 0.1 mg/kg, 1 mg/kg, 3 mg/kg, and 10 mg/kg). Then the mean latency during 10-90 min was calculated. […]

SMILES: CN1CC[C@]23c4c5ccc(O)c4O[C@H]2[C@@H](O)C=C[C@H]3[C@H]1C5 [morphine, reference compound]
- time after administration of best antinociceptive effect [1]: 90 min

SMILES: CC(C)[C@H](NC(=O)[C@H](C)NC(=O)[C@@H](NC(=O)[C@H](CCC(=O)O)NC(=O)[C@@H]1CCC(=O)N1)[C@@H](C)O)C(=O)N[C@@H](CO)C(=O)N[C@@H](CO)C(=O)N[C@@H](Cc1c[nH]cn1)C(=O)N[C@@H](CCC(=O)O)C(=O)N[C@@H](CCC(N)=O)C(=O)N[C@@H](CC(=O)O)C(=O)O [peptide of SEQ ID NO: 1, Glp Glu Thr Ala Val Ser Ser His Glu Gln Asp] ([pGlu]ETAVSSHEQD-OH)
- serum concentration of TNF-α (TNF-α): not detected
- serum concentration of IL-6 (IL-6): decreased compared to the control group
- PWT value of contralateral paw [2]: 0.6˜1.2 g
- PWT value of ipsilateral hind paw ([3]; 0.3 μg/kg oral): 1 g
- PWT value of contralateral paw ([3]; 0.3 μg/kg oral): 1 g
- PWT value of ipsilateral hind paw ([3]; 1 μg/kg oral): 0.6 g
- PWT value of contralateral paw ([3]; 1 μg/kg oral): 1.4 g
- PWT value of ipsilateral hind paw ([3]; 3 μg/kg oral): 0.16 g
- PWT value of contralateral paw ([3]; 3 μg/kg oral): 1 g
- antinociceptive effect in the acid-induced writhing experiment (C57BL/6JNarl male mice [4]): best antinociceptive effect
- antinociceptive effect in the radiant heat tail-flick test (C57BL/6JNarl male mice [5]): best antinociceptive effect
- time after administration of best antinociceptive effect [1]: 90 min
- antinociceptive effect compared with morphine ([1]; peptide 3 mg/kg oral vs morphine 10 mg/kg oral, a lower amount was required): antinociceptive effect similar to morphine
- PWT value of ipsilateral hind paw ([1]; peptide 3 mg/kg oral, at 90 min, rose from 0.07 g, FIG. 3): 0.9 ± 0.156 g
- PWT value of contralateral paw ([1]; peptide 3 mg/kg oral, at 90 min, rose from 0.5±0.047 g, FIG. 4): 1.35 ± 0.193 g
